Assay results reported in patent US11285135B2 (AMGEN INC., priority 2016, dated 2022).
Where two headings read alike, the source gives them in different places.

What was measured:
[1] = system: Phosphorylation of ERK½ in MIA PaCa-2 cells; assay: Phospho-ERK½ MSD Assay in MIA PaCa-2 cells; format: cell-based; conditions: 4 hours compound treatment, 10 ng/mL EGF for 10 min, read-out: p-ERK IC50 (MIA PaCa-2)
Method in brief: (§1)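 MIA PaCa-2 or A549 cells (25,000/well, RPMI with 10% FBS) exposed to compound titration for 4 h at 37 °C, then stimulated with 10 ng/mL EGF for 10 min and lysed in RIPA. Phospho-ERK1/2 quantified by MSD whole-cell lysate immunoassay; IC50 from 4-parameter logistic fit.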

[2] = target: GDP-bound protein (aa 1-169), containing both G12C and C118A amino acid substitutions (Homo sapiens, UniProt P01116, C118A/G12C); assay: Coupled Nucleotide Exchange Assay (SOS-mediated nucleotide exchange, AlphaScreen); format: biochemical; conditions: 2 hours compound pre-incubation
Method in brief: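 AlphaScreen signal after SOS (aa 564-1049)/GTP-driven exchange (1 h) on GDP-loaded His-[…] G12C/C118A (aa 1-169), following a 2 h compound pre-incubation in HEPES pH 7.4 buffer with 10 mM MgCl2 and 0.01% Triton X-100. IC50s fitted by 4-parameter logistic model.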

[3] = system: Phosphorylation of ERK½ in A549 cells; assay: Phospho-ERK½ MSD Assay in A549 cells; format: cell-based; conditions: 4 hours compound treatment, 10 ng/mL EGF for 10 min, read-out: p-ERK IC50 (A549)
Method in brief: as §1

[4] = Homo sapiens, MIA PaCa-2, MIA PaCa-2 cells

Sequence of GDP-bound protein (aa 1-169), containing both G12C and C118A amino acid substitutions (P01116 1-169 isoform P01116-2 G12C/C118A): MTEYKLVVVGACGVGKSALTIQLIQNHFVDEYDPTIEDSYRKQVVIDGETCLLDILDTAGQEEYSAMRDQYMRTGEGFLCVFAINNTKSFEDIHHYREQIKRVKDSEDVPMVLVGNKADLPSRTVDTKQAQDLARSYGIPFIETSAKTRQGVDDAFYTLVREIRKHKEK

Row | SMILES | IC50 [1, 4] [µM] | Coupled exchange IC50 [2] [µM] | IC50 ([3]; Homo sapiens, A549, A549 cells) [µM] | IC50 ([1]; MIA PaCa-2 cells) [µM] | IC50 ([3]; A549 cells) [µM]
1 | C=CC(=O)N1CCN(c2snc3c(F)c(-c4cccc5cccnc45)c(Cl)cc23)CC1 [Example 3-24, 1-(4-(5-chloro-7-fluoro-6-(quinolin-8-yl)benzo[c]isothiazol-3-yl)piperazin-1-yl)prop-2-en-1-one] | 23.7 | 9.07 | > 100 |  | 
2 | C=CC(=O)N1CCN(c2snc3nc(-c4cc(O)cc5ccccc45)c(Cl)cc23)CC1 [Example 2-1, 1-(4-(5-chloro-6-(3-hydroxy-1-naphthalenyl)[1,2]thiazolo[3,4-b]pyridin-3-yl)-1-piperazinyl)-2-propen-1-one] | 1.89 | 0.341 | 3.7 |  | 
3 | C=CC(=O)N1C[C@@H]2[C@H]1CCN2c1snc2c(F)c(-c3cc(O)cc4ccccc34)c(Cl)cc12 (racemic) [Example 5-8, 1-(cis-2-(5-Chloro-7-fluoro-6-(3-hydroxy-1-naphthalenyl)-2,1-benzothiazol-3-yl)-2,6-diazabicyclo[3.2.0]heptan-6-yl)-2-propen-1-one] | 1.2 | 0.433 | > 33.3 |  | 
4 | C=CC(=O)N1CCN(c2snc3c(F)c(-c4cc(O)cc5ccccc45)c(Cl)cc23)[C@@H](CO)C1 [Example 1-15] | 4.7 | 0.562 | > 100 |  | 
5 | C=CC(=O)N1CCN(c2nc(=O)n(-c3ccccc3C(C)C)c3cc(-c4c(C)ccc5[nH]ncc45)c(Cl)cc23)[C@@H](C)C1 (single isomer, unassigned) [Example 11-2-1] |  | 0.219 |  | 0.054 | 10
6 | C=CC(=O)N1CCN(c2nnc(-c3ccccc3OC)c3cc(-c4c(O)cccc4F)c(Cl)cc23)CC1 [Example 10-2, 1-(4-(7-chloro-6-(2-fluoro-6-hydroxyphenyl)-4-(2-methoxyphenyl)phthalazin-1-yl)piperazin-1-yl)prop-2-en-1-one] | 36.1 | 1.93 | > 100 |  | 
7 | C=CC(=O)N1CCN(c2snc3c(F)c(-c4cc(N)c(Cl)cc4Cl)c(Cl)cc23)CC1 [Example 3-20, 1-(4-(6-(5-amino-2,4-dichlorophenyl)-5-chloro-7-fluoro-2,1-benzothiazol-3-yl)-1-piperazinyl)-2-propen-l-one] | 9.65 | 2.99 | > 100 |  | 
8 | C=CC(=O)N1CCN(c2nc(=O)n(-c3ccccc3C(C)C)c3cc(-c4c(O)cccc4F)c(Cl)cc23)[C@@H](C)C1 [Example 8-3, 6-chloro-7-(2-fluoro-6-hydroxyphenyl)-4-((2S)-2-methyl-4-(2-propenoyl)-1-piperazinyl)-1-(2-(2-propartyl)phenyl)-2(1H)-quinazolinone] | 0.061 | 0.783 | > 100 |  | 
9 | C=CC(=O)N1CCN(c2snc3nc(-c4cc(O)cc5ccccc45)c(Cl)cc23)C(C)C1 (single isomer, unassigned) [Example 2-5-1, 1-((3S)-4-(5-chloro-6-(3-hydroxy-1-naphthalenyl) [1,2]thiazolo[3,4-b]pyridin-3-yl)-3-methyl-1-piperazinyl)-2-propen-1-one or 1-((3R)-4-(5-chloro-6-(3-hydroxy-1-naphthalenyl) [1,2]thiazolo[3,4-b]pyridin-3-yl)-3-methyl-1-piperazinyl)-2-propen-1-one] |  | 0.308 |  | 1.14 | > 100
10 | C=CC(=O)N1CCN(c2snc3nc(-c4cc(O)cc5ccccc45)c(Cl)cc23)C(C)C1 (racemic) [Example 2-5, 1-(4-(5-chloro-6-(3-hydroxy-1-naphthalenyl)[1,2]thiazolo[3,4-b]pyridin-3-yl)-3-methyl-1-piperazinyl)-2-propen-1-one] | 5.46 | 0.684 | 3.7 |  | 
11 | C=CC(=O)N1CCN(c2nnc(Cc3ccccc3)c3cc(-c4c(O)cccc4F)c(Cl)cc23)CC1 [Example 35, 2-(1-(4-acryloyl-1-piperazinyl)-4-benzyl-7-chloro-6-phthalazinyl)-3-fluorophenol] | 79.7 | 8.01 | > 100 |  | 
12 | C=CC(=O)N1CCN(c2nnc(Cc3ccc(F)cc3)c3cc(-c4c(O)cccc4F)c(Cl)cc23)CC1 [Example 29, 1-(4-(7-Chloro-4-(4-fluorobenzyl)-6-(2-fluoro-6-hydroxyphenyl)-1-phthalazinyl)-1-piperazinyl)-2-propen-1-one] | > 100 | 3.76 | > 100 |  | 
13 | C=CC(=O)N1CCN(c2nc(=O)n(-c3ccccc3C(C)C)c3cc(-c4cc(O)cc(Cl)c4Cl)c(Cl)cc23)[C@@H](C)C1 [Example 9-1, 6-Chloro-7-(2,3-dichloro-5-hydroxyphenyl)-4-((2S)-2-methyl-4-(2-propenoyl)-1-piperazinyl)-1-(2-(2-propanyl)phenyl)-2(1H)-quinazolinone] | 0.052 | 0.155 | 57.4 |  | 
14 | C=CC(=O)N1CCN(c2nnc(-c3ccccc3C(C)C)c3cc(-c4c(O)cccc4F)c(C)nc23)CC1 [Example 27, 1-(4-(3-(2-Fluoro-6-hydroxyphenyl)-2-methyl-5-(2-(2-propanyl)phenyl)pyrido[2,3-d]pyridazin-8-yl)-1-piperazinyl)-2-propen-1-one] | 12.8 | 1.78 | > 33.3 |  | 
15 | C=CC(=O)N1CC(Nc2snc3c(F)c(-c4cc(O)cc5ccccc45)c(Cl)cc23)C1 [Example 1-20, 1-(3-((5-chloro-7-fluoro-6-(3-hydroxy-1-naphthalenyl)-2,1-benzothiazol-3-yl)amino)-1-azetidinyl)-2-propen-1-one] | 4.99 | 0.683 | > 100 |  | 
16 | C=CC(=O)N1CCN(c2nc(=O)n(-c3ccccc3C(C)CC)c3cc(-c4cc(O)cc5ccccc45)c(Cl)cc23)CC1 (racemic) [Example 9-4, 1-(2-(2-butanyl)phenyl)-6-chloro-7-(3-hydroxy-1-naphthalenyl)-4-(4-(2-propenoyl)-1-piperazinyl)-2(1H)-quinazolinone] | 0.023 | 0.198 | 13 |  | 
17 | C=CC(=O)N1CCN(c2snc3c(F)c(-c4cc(O)ccc4Cl)c(Cl)cc23)CC1 [Example 3-11, 1-(4-(5-chloro-6-(2-chloro-5-hydroxyphenyl)-7-fluoro-2,1-benzothiazol-3-yl)-1-piperazinyl)-2-propen-1-one] | 3.06 | 0.457 | 11.1 |  | 
18 | C=CC(=O)N1CCN(c2snc3c(F)c(-c4c(C5CC5)ccc5[nH]ncc45)c(Cl)cc23)CC1 [Example 23, 1-(4-(5-chloro-6-(5-cyclopropyl-1H-indazol-4-yl)-7-fluoro-2,1-benzothiazol-3-yl)-1-piperazinyl)-2-propen-1-one] | 3.21 | 3.29 | > 33.3 |  | 
19 | C=CC(=O)N1CCN(c2snc3c(F)c(-c4cc(O)c(F)cc4Cl)c(Cl)cc23)CC1 [Example 3-18, 1-(4-(5-chloro-6-(2-chloro-4-fluoro-5-hydroxyphenyl)-7-fluoro-2,1-benzothiazol-3-yl)-1-piperazinyl)-2-propen-1-one] | > 100 | 2.60 | > 100 |  | 
